For test [1], the system named is postoperative pain. Conditions: intravenous; for analgesic response (change in VAS pain rating): nalbuphine hydrochloride salt 2.5 mg alone.
Excerpt: In this clinical trial 67 patients underwent standardized surgery by the same oral surgeon for removal of third molar teeth, including at least one bony impacted mandibular third molar. Prior to surgery, patients received intravenous diazepam, nitrous oxide, and a local anesthetic (mepivacaine without vasoconstrictor to obtain a nerve block of short duration). After surgery, each patient was randomly assigned to receive an injection of nalbuphine hydrochloride salt (Abbott Laboratories, Abbott Park, Ill.) 2.5 mg either alone or combined with naloxone hydrochloride salt (0.4 mg) in an open injection, double-blinded fashion, through an intravenous line.
Baseline pain intensity was defined as the last VAS pain rating before administration of the test drug. VAS pain ratings were recorded at 20 minute intervals beginning ten minutes after administration of the test drug. The duration of the experiment was two hours and fifty minutes, measured from the time of administration of the test drug. For each patient, the magnitude of the analgesic (or anti-analgesic) response was defined as the difference between the pain rating at each time point following test drug administration and the baseline VAS pain rating.
For test [2], the system named is postoperative pain. Conditions: nalbuphine hydrochloride salt 2.5 mg alone; both sexes; intravenous.
Description: In this clinical trial, 65 patients underwent standardized surgery by the same oral surgeon for removal of third molar teeth, including at least one bony impacted mandibular third molar. Prior to surgery, patients received intravenous diazepam, nitrous oxide, and a local anesthetic (mepivacaine without vasoconstrictor to obtain a nerve block of short duration). After surgery, each patient was randomly assigned to receive an injection of 2.5 mg of nalbuphine hydrochloride salt (Abbott Laboratories, Abbott Park, Ill.) either alone or combined with 0.2 mg naloxone hydrochloride salt in an open injection, double-blinded fashion, through an intravenous line.
Baseline pain intensity was defined as the last VAS pain rating before administration of the test drug. VAS pain ratings were recorded at 20 minute intervals beginning ten minutes after administration of the test drug. The duration of the experiment, measured from the time of administration of the test drug, was two hours and fifty minutes. For each patient, the magnitude of the analgesic (or anti-analgesic) response was defined as the difference between the pain rating at each time point following test drug administration and the baseline VAS pain rating.

Structures are written as SMILES. Counter-ions that a name gives are not always drawn. Like-named read-outs stand apart in the source and are kept apart here.

Turning to `Oc1ccc2c3c1O[C@H]1[C@@H](O)CC[C@@]4(O)[C@@H](C2)N(CC2CCC2)CC[C@]314` [nalbuphine hydrochloride salt, nalbuphine], the “analgesic response (change in VAS pain rating)” value is “induced brief analgesia” in the test on postoperative pain [1] (FIG. 4a, women) and “failed to produce significant analgesia” with postoperative pain [1] (FIG. 4b, men). Also, in the test on postoperative pain [1] (women, nalbuphine hydrochloride salt 2.5 mg), the anti-analgesia result is recorded as “apparently insufficient to produce anti-analgesia”. For the same compound, the analgesic effect entry in the test on postoperative pain [2] was “initial analgesic effect of administration of nalbuphine alone observed in both sexes”.
